Experiments:
[1] = test system: healthy, mature C57BL/6 male mice; test: Object location memory test (recognition of the new location of a known object); type: in vivo; conditions: for dose with maximally expressed stimulating/activating effect on memory: mice, intragastric
From the text: Method. In order to study the action of substances on the memory of animals in which there had been no prior destruction of neurons, we used the test of recognition of the new location of a known object (“Object location memory test”, B. Kolb, K. Buhrmann, R. McDonald and R. Sutherland, Cereb. Cortex, 6 (1994), pp 664-680; D. Gaffan, Eur. J. Neurosci., 4 (1992), pp. 381-388; T. Steckler, W. H. I. M. Drinkenburgh, A. Sahgal and J. P. Aggleton, Prog. Neurobiol., 54 (1998), pp. 289-311). This Object Recognition Test is used to study memory. It provides a reliable, easy-to-use assessment tool for analyzing the effects of test compounds on memory in animals. The test can be applied to normal healthy animals (controls), as well as to animals that are models of various neurodegenerative diseases.
Experiments were performed on healthy, mature C57BL/6 male mice aged 3-5 months and weighing 20-24 g. Male mice were used to exclude any possible negative effects resulting from hormonal changes associated with […] in female mice. The animals were kept in a vivarium with 5 to a cage in 12/12 hours light regime with light from 08.00 to 20.00 and free access to water and food. The observation chamber was made from white opaque organic glass and measured 48×38×30 cm. Brown glass vials with a diameter of 2.7 cm and a height of 5.5 cm were used as the test objects. 2-3 minutes before introducing an animal, the chamber and test objects were rubbed with 85% alcohol. The animals were always placed in the centre of the chamber.
Dimebon was dissolved in distilled water and administered intragastrically 1 hour before training in a volume of 0.05 ml per 10 g of animal weight. A corresponding volume of solvent was administered to control animals.
On the first day, the mice were brought into the test room and acclimatized for 20-30 minutes. After this, each animal was placed for 10 min. in an empty behavior chamber, which had been pretreated with alcohol, for familiarization. The animal was then replaced in the cage and taken to the vivarium.
On the following day, the same mice were brought into the test room, acclimatized for 20-30 min. and then given dimebon solution intragastrically. One hour after administration of the substance, an animal was placed in the behavior chamber, on the bottom of which two identical objects for recognition (glass vials) were placed on a diagonal at a distance of 14.5 cm from the corners. The training time for each animal was 20 min. After 20 min. it was replaced in the cage and returned to the vivarium.
Testing was performed 48 hours after training. For this purpose, after acclimatization an animal was placed for 1 min. in the chamber for refamiliarization. After a minute it was removed and one object was placed on the bottom of the chamber in a location known to the animal, and the other in a new location. The time spent investigating each object separately over a period of 10 min. was recorded with an accuracy of 0.1 s using two electronic stopwatches. The behavior of the animals was observed through a mirror. Purposeful approach of an animal's nose towards an object at a distance of 2 cm or direct touching of an object with the nose was regarded as a positive investigative reaction.
Since significant variations in object investigation time between animals are observed in this test, we calculated the percent investigation time for each mouse using the formula tNl/(tKl+tNl)×100. The total time spent on investigation of the two objects was taken as 100%. The results were further processed using the Student t-test method.

mice [2] = test: Acute toxicity on intragastric administration; type: in vivo; conditions: intragastric administration
Description: (§1) Investigation of the acute toxicity of Memantine® established that the death of the animals is observed after its intragastric administration in a dose of 300 mg/kg. The LD50 for mice on intragastric administration of Nootropil® (piracetam) is 8000 mg/kg.

mice [3] = conditions: intragastric administration, source not stated; cited from earlier work
[4] = cited from earlier work
[5] = Acute toxicity on intragastric administration; type: in vivo; conditions: mouse, in vivo, po
Description: as §1

rats with a model of AD = conditions: cholinergic neurons damaged by chronic AF64A; cited from earlier work
AD patients = conditions: 20 mg three times daily; cited from earlier work
[6] = dose 2.5 mg/kg, testing 48 hours after training
[7] = dose 0.01 mg/kg intragastrically 1 hour before training, testing 48 hours after training
[8] = dose 0.1 mg/kg intragastrically, testing 48 hours after training

SMILES	percent of time on investigation of the object in a known location [1, 6]	percent of time on investigation of the object in a new location [1, 6]	dose with maximally expressed stimulating/activating effect on memory [1]	dose at which death of the animals is observed (mice [2])	LD50 (mice [3])	doses with stimulating effect on learning and memory ([4]; active and passive avoidance conditioned response tests, depending on the test)	maximally effective dose that stimulated learning and memory ([4]; data from the literature)	stimulating effect on memory, times more active than Nootropil (piracetam) ([1]; compared with literature doses of Nootropil)	memory-enhancing activity relative to Memantine (times higher) ([1]; comparing doses with essentially the same effect (0.01 vs 2.5 mg/kg))	memory-enhancing activity relative to Memantine (times higher) ([1]; comparing maximally effective doses (0.1 vs 2.5 mg/kg))	percent of time on investigation of the object in the known location [1, 7]	percent of time on investigation of the object in the new location [1, 7]	percent of time on investigation of the object in the known location [1, 8]	percent of time on investigation of the object in the new location [1, 8]	activating effect on memory ([1]; dose increased to 0.25 mg/kg)	stimulating effect on memory, times more active than Memantine ([1]; overall conclusion)	LD50 [5]	results in active avoidance conditioned reflex experiment versus control animals (rats with a model of AD)	condition of AD patients (memory and cognitive functions) (AD patients)
CC12CC3CC(C)(C1)CC(N)(C3)C2 [Memantine®, reference compound]	40.6±6.9%	59.4±6.9%	2.5 mg/kg	300 mg/kg															
NC(=O)CN1CCCC1=O [Nootropil® (piracetam), piracetam]					8000 mg/kg	200 to 500 mg/kg	200 to 500 mg/kg												
Cc1ccc2c(c1)c1c(n2CCc2ccc(C)nc2)CCN(C)C1 [dimebon, 2,8-dimethyl-5-[2-(6-methyl-3-pyridyl)ethyl]-2,3,4,5-tetrahydro-1H-pyrido[4,3-b]indole]			0.1 mg/kg					2000-5000 times	250 times	25 times	42.5±4.8%	57.5±4.8%	37.6%	62.4±6.5%	activating effect on memory disappears	25-250 times	> 1000 mg/kg	significantly better results	improvement in the condition of AD patients
